Test results reported in patent US20130011493A1, “PLANT DISEASE CONTROLLING COMPOSITION AND METHOD FOR CONTROLLING PLANT DISEASE” (SUMITOMO CHEMICAL COMPANY, LIMITED, priority 2010, published 2013).

System: gray mold fungus (Botrytis cinerea)
Test: cucumber leaf disk preventive test against gray mold fungus
Assay type: in vivo
Conditions: 15° C., four days
Description: To a SUS beaker are added 30 parts of the present compound (racemate), 5 parts of Soprophor FLK (polyoxyethylene tristyrylphenyl ether phosphate, produced by Rhodia Nicca Ltd.), 65 parts of ion-exchange water and 150 parts of glass beads (1.0 mm diameter). The mixture is subjected to grinding at a velocity of 1000 rpm with cooling to 10° C., and thereafter the glass beads are separated, so as to obtain a flowable formulation comprising the present compound (racemate).
True leaf of cucumber is punched out with cork borer to 13 mm in diameter to prepare a leaf disk. In 24 well microwell plate that is dispensed with 1 ml 0.8% water agar, the leaf disk is placed such that the upper side of the leaf is in an upward direction. […]
After confirming that the testing medical solution is dried, conidium of gray mold fungus (Botrytis cinerea) is suspended into potato dextrose broth (DIFCO) in a density of about 10^5 conidium/mL and is then subjected to a spray inoculation. After leaving to stand the leaf disk in a growth chamber set up at 15° C. for four days, an onset area on the leaf is measured and then calculated an onset area rate (hereinafter, referred to as an onset area rate of treated group). […]
A preventive value is calculated from the above onset area rate of treated group and the onset area rate of non-treated group by the following equation: […]

Substance: copper hydrochloride
- preventive value (%) (copper hydrochloride alone 0.5 ppm): 10%
- preventive value (%) (copper hydrochloride alone 5.0 ppm): 15%
